Measured values from patent publication US20220211718A1, “BCL-2 INHIBITORS FOR USE IN THE TREATMENT OF A BCL-2 MEDIATED CANCER CARRYING THE GLY101VAL MUTATION” (LES LABORATOIRES SERVIER, priority 2019, published 2022).

Columns and labels:
[1] = tested on: KMS-12-PE Bcl-2 D103Y cells; assay: In vitro cytotoxicity, CellTiter-Glo cell viability 72 h, Example 5; assay type: cell-based; conditions: Homo sapiens, read-out: KMS-12-PE Bcl-2 D103Y C50
Method: Cell lines were grown at 37° C. in a humidified atmosphere with 5% CO2 in media recommended by the suppliers. KMS-12-PE (ACC 606) from the Leibniz-Institute DSMZ (Braunschweig, Germany). Lentiviral particles containing Bcl-2 mutated on D103Y were cloned into pcLV-CMV-DEST-IRES-TagRFP. Lentiviral particles (1×10^6) were mixed with Polybrene at 8 μg/ml and transduced by spinoculation for 1 h at 32° C. and incubated overnight. TagRFP positive-KMS-12-PE cells were sorted by FACS after 8 days. Bcl-2 expression was monitored by immunoblotting using anti-Flag and anti-Bcl-2 antibodies. Cells were seeded into 96-well plates and treated at 9 points with 1:3.16 serial dilution of compounds. […] Results were normalized to the viability of cells without compounds (control wells). The C50 values were calculated using nonlinear Regression algorithms in XCell software.

[2] = biological target: Bcl-2 Asp103Tyr mutant (Homo sapiens, UniProt P10415, D103Y); assay: Fluorescence quenching assay (PUMA quench reagent displacement), Example 4; assay type: binding; conditions: 50 nM peptide, about 2 hours at 18° C., ABT-199 inactive @1 μM
Bcl-2 Asp103Tyr mutant, sequence (P10415 with tags, fused parts or gaps D103Y): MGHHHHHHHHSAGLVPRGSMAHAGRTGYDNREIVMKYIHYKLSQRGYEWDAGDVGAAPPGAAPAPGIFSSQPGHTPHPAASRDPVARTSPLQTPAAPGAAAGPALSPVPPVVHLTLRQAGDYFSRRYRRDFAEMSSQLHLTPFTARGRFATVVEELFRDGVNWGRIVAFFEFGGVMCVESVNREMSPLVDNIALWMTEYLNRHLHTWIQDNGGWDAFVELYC
Description: […] […] […] […] […] […] […] […] […] […] […] […] […] […] […] […] […] […] […] […] […] […] […] […] […] […] […]

[3] = tested on: RS4;11 Bcl-2 G101V cells; assay: In vitro cytotoxicity, CellTiter-Glo cell viability 72 h; assay type: cell-based; conditions: Homo sapiens, read-out: RS4;11 Bcl-2 G101V C50
Method: (§1) Cell lines were grown at 37° C. in a humidified atmosphere with 5% CO2 in media recommended by the suppliers. RS4;11 (ATCC® CRL1873™) were purchased from American Type Culture Collection (ATCC) and KMS-12-PE (ACC 606) from the Leibniz-Institute DSMZ (Braunschweig, Germany). Lentiviral particles containing Bcl-2 wild-type (also named ‘Bcl-2 VT’) and Bcl-2 mutated on G101V (also named ‘Bcl-2 G101V’) were cloned into pcLV-CMV-DEST-IRES-TagRFP. Lentiviral particles (1×10^6) were mixed with Polybrene at 8 μg/ml and transduced by spinoculation for 1 h at 32° C. and incubated overnight. After 8 days for KMS-12-PE and 21 days for RS4;11, TagRFP positive-cells were sorted by FACS. BCL2 expression was monitored by immunoblotting using anti-Flag and anti-BCL2 antibodies. Cells were seeded into 96-well plates and treated with 1:3.16 serial dilution of compounds (9 different concentrations). […] Results were normalized to the viability of cells without compounds (control wells). The C50 values were calculated using nonlinear regression algorithms in XCell software.

[4] = tested on: KMS-12-PE Bcl-2 WT cells; assay: as above; assay type: cell-based; conditions: Homo sapiens, read-out: KMS-12-PE Bcl-2 WT C50
Method: as §1

[5] = tested on: RS4;11 Bcl-2 WT cells; assay: as above; assay type: cell-based; conditions: Homo sapiens, read-out: RS4;11 Bcl-2 WT C50
Method: as §1

[6] = tested on: KMS-12-PE Bcl-2 G101V cells; assay: as above; assay type: cell-based; conditions: Homo sapiens, read-out: KMS-12-PE Bcl-2 G101V C50
Method: as §1

| Compound | IC50 [1] [nM] | Bel-2 Asp103Tyr mutant K1 mean [2] | IC50 [3] [nM] | IC50 [4] [nM] | IC50 [5] [nM] | IC50 [6] [nM] |
| --- | --- | --- | --- | --- | --- | --- |
| CC1(C)CCC(CN2CCN(c3ccc(C(=O)NS(=O)(=O)c4ccc(NCC5CCOCC5)c([N+](=O)[O-])c4)c(Oc4cnc5[nH]ccc5c4)c3)CC2)=C(c2ccc(Cl)cc2)C1 [ABT-199, Venetoclax, reference compound] | 1830 | inactive | 130 | 22.5 | 10.7 | 931 |
| O=C(c1cc(-c2cc3c(cc2C(=O)N2Cc4ccccc4C[C@H]2CN2CCOCC2)OCO3)n2c1CCCC2)N(c1ccccc1)c1ccc(O)cc1 [Compound A, N-(4-hydroxyphenyl)-3-{6-[((3S)-3-(4-morpholinylmethyl)-3,4-dihydro-2(1H)-isoquinolinyl)carbonyl]-1,3-benzodioxol-5-yl}-N-phenyl-5,6,7,8-tetrahydro-1-indolizine carboxamide] | – | – | 495 | 57.3 | 82.3 | 961 |
| Cc1c(N(C(=O)c2cc(-c3cc(Cl)ccc3C(=O)N3Cc4ccccc4C[C@H]3CN3CCOCC3)n(C)c2C)c2ccc(O)cc2)cc(C#N)n1C [Compound B, 5-(5-chloro-2-{[(3S)-3-(morpholin-4-ylmethyl)-3,4-dihydroisoquinolin-2(1H)-yl]carbonyl}phenyl)-N-(5-cyano-1,2-dimethyl-1H-pyrrol-3-yl)-N-(4-hydroxyphenyl)-1,2-dimethyl-1H-pyrrole-3-carboxamide] | 83.7 | – | 60.4 | 21 | 9.03 | 179 |
